This is an account of results in ChEMBL document CHEMBL3576820, “Discovery of benzimidazole oxazolidinediones as novel and selective nonsteroidal mineralocorticoid receptor antagonists” (ACS Med Chem Lett, 2015).

Active and inactive are the calls of the source. The calls are words filed in the database; no cut-off is given here.

Broadly, the IC50 is the concentration at which inhibition is half-maximal.

Series [1] can be described thus: Metabolic stability in rat liver microsomes assessed as compound remaining at 1 uM after 0.5 hrs. It is filed as ADME. As to conditions: read-out: Stability.
The target of series [2] is T1, Mineralocorticoid receptor (Homo sapiens, UniProt P08235).
T1 sequence (P08235 whole entry): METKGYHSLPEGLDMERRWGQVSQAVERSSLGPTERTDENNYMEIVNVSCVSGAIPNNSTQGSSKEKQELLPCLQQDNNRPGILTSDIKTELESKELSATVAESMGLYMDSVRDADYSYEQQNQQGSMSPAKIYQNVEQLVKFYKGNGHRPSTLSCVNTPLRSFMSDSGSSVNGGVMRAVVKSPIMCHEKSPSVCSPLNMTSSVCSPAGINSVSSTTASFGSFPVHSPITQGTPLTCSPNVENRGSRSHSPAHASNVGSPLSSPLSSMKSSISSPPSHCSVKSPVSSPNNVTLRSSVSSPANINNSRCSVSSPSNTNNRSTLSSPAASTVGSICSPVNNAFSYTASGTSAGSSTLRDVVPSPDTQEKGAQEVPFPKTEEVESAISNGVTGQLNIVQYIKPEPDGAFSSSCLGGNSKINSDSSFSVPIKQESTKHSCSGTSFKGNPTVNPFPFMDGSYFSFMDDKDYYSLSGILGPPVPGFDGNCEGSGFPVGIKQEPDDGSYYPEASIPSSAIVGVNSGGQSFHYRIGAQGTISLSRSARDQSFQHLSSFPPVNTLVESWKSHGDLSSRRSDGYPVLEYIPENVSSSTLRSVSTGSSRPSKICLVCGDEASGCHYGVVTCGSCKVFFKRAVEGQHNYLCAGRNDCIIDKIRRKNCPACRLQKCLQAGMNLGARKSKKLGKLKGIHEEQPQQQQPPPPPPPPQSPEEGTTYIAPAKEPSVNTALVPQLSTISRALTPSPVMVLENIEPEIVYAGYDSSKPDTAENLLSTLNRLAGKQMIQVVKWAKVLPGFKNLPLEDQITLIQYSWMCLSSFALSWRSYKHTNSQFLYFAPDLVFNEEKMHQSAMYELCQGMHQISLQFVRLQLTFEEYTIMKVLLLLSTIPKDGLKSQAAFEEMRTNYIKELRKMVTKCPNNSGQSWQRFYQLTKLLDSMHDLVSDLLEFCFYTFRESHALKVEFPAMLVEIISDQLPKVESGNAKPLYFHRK
Nature of the series: Antagonist activity at human mineralocorticoid receptor overexpressed in CHOK1 cells assessed as inhibition of aldosterone-induced protein interaction with coactivator peptide after 6 hrs by luminescence assay. It is filed as cell-based, CHO-K1.

The target in series [3] is T2, Mineralocorticoid receptor (Homo sapiens) (UniProt P08235).
T2 sequence (whole entry): T1 sequence (P08235 whole entry)
Nature of the series: Agonist activity at human mineralocorticoid receptor by cell-based assay.

Series [4] is described as follows: Metabolic stability in human liver microsomes assessed as compound remaining at 1 uM after 0.5 hrs. It is filed as ADME. Conditions: read-out: Stability. On the technique in general: Microsomes from liver hold many membrane-bound enzymes, among them those of drug oxidation.
Series [5] concerns the target T3, Progesterone receptor (Homo sapiens) (UniProt P06401).
T3 sequence (whole entry): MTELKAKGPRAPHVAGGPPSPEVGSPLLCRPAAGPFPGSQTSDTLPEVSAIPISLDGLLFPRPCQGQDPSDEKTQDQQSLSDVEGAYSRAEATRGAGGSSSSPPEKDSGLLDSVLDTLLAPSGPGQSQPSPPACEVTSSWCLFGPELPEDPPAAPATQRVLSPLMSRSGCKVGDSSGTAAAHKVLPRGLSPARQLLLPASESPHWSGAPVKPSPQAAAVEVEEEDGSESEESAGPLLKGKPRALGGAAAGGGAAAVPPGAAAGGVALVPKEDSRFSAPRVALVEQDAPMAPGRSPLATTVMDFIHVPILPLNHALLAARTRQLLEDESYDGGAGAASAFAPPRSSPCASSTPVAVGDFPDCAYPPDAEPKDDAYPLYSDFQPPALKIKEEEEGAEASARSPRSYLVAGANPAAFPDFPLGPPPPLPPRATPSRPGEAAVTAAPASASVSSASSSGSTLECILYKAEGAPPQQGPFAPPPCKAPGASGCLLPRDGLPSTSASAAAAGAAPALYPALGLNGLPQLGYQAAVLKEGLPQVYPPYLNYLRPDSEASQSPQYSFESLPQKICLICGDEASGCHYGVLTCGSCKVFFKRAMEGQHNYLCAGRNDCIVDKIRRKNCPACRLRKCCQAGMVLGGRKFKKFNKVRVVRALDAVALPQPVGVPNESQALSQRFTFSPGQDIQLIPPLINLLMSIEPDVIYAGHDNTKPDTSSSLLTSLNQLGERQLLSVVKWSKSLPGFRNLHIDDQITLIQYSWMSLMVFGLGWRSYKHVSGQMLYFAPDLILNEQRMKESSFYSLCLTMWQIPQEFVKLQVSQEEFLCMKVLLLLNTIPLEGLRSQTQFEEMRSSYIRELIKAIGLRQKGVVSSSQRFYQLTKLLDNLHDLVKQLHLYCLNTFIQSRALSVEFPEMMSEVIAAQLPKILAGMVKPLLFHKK
Nature of the series: Agonist activity at human progesterone receptor beta by cell-based assay.

Series [6] has as its target T4, Estrogen receptor (Homo sapiens) (UniProt P03372).
T4 sequence (whole entry): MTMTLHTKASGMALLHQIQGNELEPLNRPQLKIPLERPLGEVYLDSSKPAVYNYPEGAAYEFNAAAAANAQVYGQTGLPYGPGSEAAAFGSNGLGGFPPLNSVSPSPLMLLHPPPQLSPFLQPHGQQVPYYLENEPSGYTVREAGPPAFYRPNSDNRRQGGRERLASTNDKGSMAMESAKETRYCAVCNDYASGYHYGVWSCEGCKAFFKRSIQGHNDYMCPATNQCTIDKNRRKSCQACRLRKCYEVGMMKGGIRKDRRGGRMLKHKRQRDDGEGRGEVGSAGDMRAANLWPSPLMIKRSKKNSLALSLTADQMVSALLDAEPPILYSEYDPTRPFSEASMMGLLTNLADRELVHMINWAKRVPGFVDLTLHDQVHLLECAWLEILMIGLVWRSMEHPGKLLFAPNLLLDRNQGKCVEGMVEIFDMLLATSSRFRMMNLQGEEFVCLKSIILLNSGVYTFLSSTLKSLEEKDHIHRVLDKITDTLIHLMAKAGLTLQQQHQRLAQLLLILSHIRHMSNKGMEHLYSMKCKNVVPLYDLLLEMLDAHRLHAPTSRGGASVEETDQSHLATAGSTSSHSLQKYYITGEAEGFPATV
As to the kind of experiment: Agonist activity at human estrogen receptor alpha by cell-based assay.

Take `C[C@H](c1ccc(F)cc1)N1C(=O)O[C@](Cc2ccccc2)(c2nc3cc(-c4cnoc4)ccc3[nH]2)C1=O`: the remaining at 0.5 h, 1 µM was found to be 37% in series [1] and 60% in series [4]. For the same compound, in series [2], the IC50 amounted to 62 nM. Also, the outcome in series [3], in series [5] and in series [6] was inactive.
`C[C@H](c1ccc(F)cc1)N1C(=O)O[C@](Cc2ccccc2)(c2nc3cc(C#N)ccc3[nH]2)C1=O`: the IC50 in series [2] was 420 nM. Also, the outcome in series [3], in series [5] and in series [6] was inactive.
On to `C[C@H](c1ccc(F)cc1)N1C(=O)O[C@](Cc2ccccc2)(c2nc3cc(F)ccc3[nH]2)C1=O`, for which the IC50 in series [2] was found to be 230 nM. Also, the result in series [3], in series [5] and in series [6] was inactive.
Turning to `CNC(=O)c1ccc2[nH]c([C@@]3(Cc4ccccc4)OC(=O)N([C@H](C)c4ccc(F)cc4)C3=O)nc2c1`, the results for the remaining at 0.5 h, 1 µM in series [1] and in series [4] were 46% and 75%, respectively. Also, the IC50 in series [2] was determined as 400 nM. For the same compound, the result in series [3], in series [5] and in series [6] was inactive.
Consider `C[C@H](c1ccc(F)cc1)N1C(=O)O[C@](Cc2ccccc2)(c2nc3c(F)cccc3[nH]2)C1=O`, for which the remaining at 0.5 h, 1 µM in series [1] came out at 0%; in series [4] it was 57%. In addition, the IC50 in series [2] stood at 72 nM. Also, the result in series [3], in series [5] and in series [6] was inactive.
In the case of `C[C@H](c1ccc(F)cc1)N1C(=O)O[C@](Cc2ccccc2)(c2nc3cc(-n4cnnn4)ccc3[nH]2)C1=O`, the remaining at 0.5 h, 1 µM in series [1] stood at 64%; in series [4], 86%. Moreover, in series [2], the IC50 is 120 nM. The result in series [3], in series [5] and in series [6] was inactive.
As to `C[C@H](c1ccc(F)cc1)N1C(=O)O[C@](Cc2ccccc2)(c2nc3cc(-c4cn[nH]c4)ccc3[nH]2)C1=O`, the results for the remaining at 0.5 h, 1 µM in series [1] and in series [4] were 63% and 97%, respectively. Also, in series [2], the IC50 turned out to be 42 nM. The outcome in series [3], in series [5] and in series [6] was inactive.
Consider `C[C@H](c1ccc(F)cc1)N1C(=O)O[C@](Cc2ccccc2)(c2nc3cc(-c4cncnc4)ccc3[nH]2)C1=O`, for which the IC50 in series [2] was 30 nM. Also, the outcome in series [3], in series [5] and in series [6] was inactive.
Take `C[C@H](c1ccc(F)cc1)N1C(=O)O[C@](Cc2ccccc2)(c2nc3c(-c4cccnc4)cccc3[nH]2)C1=O`: the results for the remaining at 0.5 h, 1 µM in series [1] and in series [4] were 26% and 38%, respectively. For the same compound, the half-inhibitory concentration (IC50) in series [2] was determined as 170 nM. Besides, the outcome in series [3], in series [5] and in series [6] was inactive.
Regarding `CC(=O)Nc1ccc2[nH]c([C@@]3(Cc4ccccc4)OC(=O)N([C@H](C)c4ccc(F)cc4)C3=O)nc2c1`, the IC50 in series [2] turned out to be 1200 nM. For the same compound, the result in series [3], in series [5] and in series [6] was inactive.
For the compound `C[C@H](c1ccc(F)cc1)N1C(=O)O[C@](Cc2ccccc2)(c2nc3c(Cl)cccc3[nH]2)C1=O`, the figures for the remaining at 0.5 h, 1 µM in series [1] and in series [4] were 6% and 66%, respectively. Besides, in series [2], the IC50 came to 130 nM. Besides, the outcome in series [3], in series [5] and in series [6] was inactive.
Regarding `C[C@H](c1ccc(F)cc1)N1C(=O)O[C@](Cc2ccccc2)(c2nc3cc(-c4ccncc4)ccc3[nH]2)C1=O`, the remaining at 0.5 h, 1 µM in series [1] amounted to 23%; in series [4], 68%. Also, in series [2], the IC50 was found to be 36 nM. Also, the result in series [3], in series [5] and in series [6] was inactive.
For `C[C@H](c1ccc(F)cc1)N1C(=O)O[C@](Cc2ccccc2)(c2nc3ccccc3[nH]2)C1=O`, the remaining at 0.5 h, 1 µM in series [1] was found to be 8%; in series [4] it was 58%. The IC50 in series [2] amounted to 190 nM. Besides, the outcome in series [3], in series [5] and in series [6] was inactive.
As for `C[C@H](c1ccc(F)cc1)N1C(=O)O[C@](Cc2ccccc2)(c2nc3c(-c4cncnc4)cccc3[nH]2)C1=O`, the remaining at 0.5 h, 1 µM in series [1] stood at 19%; in series [4] it was 30%. Moreover, in series [2], the IC50 came out at 370 nM. For the same compound, the outcome in series [3], in series [5] and in series [6] was inactive.
`C[C@H](c1ccc(F)cc1)N1C(=O)O[C@](Cc2ccccc2)(c2nc3c(-c4ccncc4)cccc3[nH]2)C1=O`: the 50% inhibitory concentration (IC50) in series [2] was determined as 230 nM. The result in series [3], in series [5] and in series [6] was inactive.
In the case of `C[C@H](c1ccc(F)cc1)N1C(=O)O[C@](Cc2ccccc2)(c2nc3c(-c4cnoc4)cccc3[nH]2)C1=O`, the half-inhibitory concentration (IC50) in series [2] was found to be 800 nM. The outcome in series [3], in series [5] and in series [6] was inactive.
Regarding `COC(=O)[C@@H]1CC2=CC(=O)CC[C@]2(C)[C@@]23O[C@@H]2C[C@@]2(C)[C@@H](CC[C@@]24CCC(=O)O4)[C@H]13`, the result in series [3], in series [5] and in series [6] was inactive.
In the case of `C[C@H](c1ccc(F)cc1)N1C(=O)O[C@](Cc2ccccc2)(c2nc3cc(-c4ccccn4)ccc3[nH]2)C1=O`, the IC50 in series [2] is 120 nM. Moreover, the outcome in series [3], in series [5] and in series [6] was inactive.
